Source: PMC4433269 (PLoS ONE, 2015)
Like-named read-outs stand apart in the source and are kept apart here.

Experiments:
everted rat gut sacs [1] = conditions: for ER(P2/P0): Papp with 6-gingerol / Papp alone; for ER(P1/P0): Papp with Rhizoma Zingiberis extract / Papp alone
Procedure: (§1) All of the rats were starved for 24 h before the experiments. The rats were sacrificed by decapitation, and the duodenum, jejunum, ileum and colon were immediately removed and placed in a 37°C K-R solution that was oxygenated (O2/CO2, 95%:5%). After washing in order with K-R solution at room temperature, the four intestinal segments were everted on a glass rod (3 mm in diameter) with one end of each clamped before filling with fresh oxygenated K-R solution. The intestines were then sealed with braided sutures. Each sac was placed in a 10 mL test tube that contained 8 mL of oxygenated drug-containing K-R solution at 37°C. Then, 0.1 mL of serosal fluid was collected at the appropriate time points, and an equal volume of K-R solution was added to the serosal side. Finally, the solution in the sacs was collected to accurately calculate the volume, and each sac was accurately weighed before and after being cut open. The area of each sac was measured. All of the samples were analyzed using the UPLC-MS method. After analysis, the amounts (ng/mm^2) of absorbed aconitine and digoxin were calculated. Each experiment was repeated five times, and the presented data represent the means ± S.D. This study was conducted in accordance with the internationally accepted principles for laboratory animal use and care as found in the European Community guidelines.
(§2) The analytical UPLC-MS system consisted of an Acquity Ultra Performance LC with a Xevo TQ mass spectrometer as the detector, and it was equipped with an electrospray source in the positive ion mode (Waters Co., USA). Separation was performed on a BEH Extend-C18 column (2.1*50 mm, 1.7 μm, Agilent Co., USA). The mobile phase was composed of methanol mixed with acetonitrile in equal volumes (A) and an aqueous solution of ammonium acetate at pH 10.5 (B). The gradient elution conditions were as follows: 0–1 min 10–43% A, 2–4.5 min 55–100% A, and 5–7 min 10% A. The flow rate was 0.3 mL/min. The column temperature was 35°C throughout the entire detection process. All of the samples were freeze-dried after being collected from the serosal side, and the residue was dissolved with 0.1 mL of the mobile phase (A) prior to injecting 5 μL of each sample into the UPLC system.
To study the effect of the Rhizoma Zingiberis extract on the concentration of aconitine in the rat gut sacs, the apparent […] coefficient (Papp) was calculated using the equation Papp = [V/(A·C0)]·dC/dt, where V represents the fluid volume in the serosal side, A represents the superficial area of the gut sac, and C0 represents the initial concentration of aconitine outside the gut sac.
The experiment described in this section was conducted under the same conditions as decribed in the “Effect of the Rhizoma Zingiberis extract on the level of aconitine in the rat gut sacs” section.

P-glycoprotein [2] = assay: Effect on the level of the P-gp substrate digoxin in rat gut sacs; assay type: in vitro ADME
Procedure: as §1
The flow rate was 0.3 mL/min.

everted rat gut sacs [3] = assay type: in vitro ADME; conditions: 120 min
Procedure: as §1, §2
The intestinal kinetic absorptive behavior of aconitine was investigated in the gut sac model cultured in K-R nutrient solution for 120 min. The accumulative absorbed dose (Q) of aconitine was calculated for use in zero-level, primary and Higuchi equation fitting. Then, the determination coefficient (R^2) of the equation was set as the evaluation criterion for the quality of the fit. […] The slope of the fitting equation represents the absorption rate constant (ka).

[4] = assay type: physicochemical; conditions: for Stability RSD%: 0 h, 24 h and 48 h; for Stability of QC samples: RSD % less than 15%
Procedure: The selectivity was examined by detecting blank K-R nutrient solutions, which were useful only if no peaks appeared at the retention times of aconitine and digoxin. The inter-day and intra-day accuracies were evaluated by calculating the percent relative standard deviation (RSD %) of the concentration of the quality control (QC) samples on the same day or over three days. The matrix effect was determined by comparing the concentrations of samples with standard solution added into a blank K-R solution after extraction with QC samples. The extraction recovery was calculated by comparing the concentration of normally extracted samples with that of the QC samples. The stability was evaluated by calculating the RSD % of the concentration of the quality control (QC) samples at 0 h, 24 h and 48 h. The accuracy, matrix effect, extraction recovery and stability were all replicated by five QC samples at three levels. The LOD and LLOQ were the concentrations of QC samples with peak signal-to-noise ratios (S/N) of at least 3 and 10, respectively.

P-glycoprotein [5] = tested on: P-glycoprotein; set-up: method as in earlier work; conditions: Caco-2 cell culture model; cited from earlier work
[6] = Solubility in tested solvents during sample processing; conditions: tested solvents: methanol, ethanol, acetonitrile, distilled water, DMSO
Procedure: Because there were numerous inorganic salts that were harmful to the mass spectrometer in the everted sac samples, dechloridation was the first consideration when we developed the processing method. We applied lyophilization as the first step for prolonging the resting period of the samples to avoid the decomposition of unstable components. […] Therefore, the second step consisted of dissolving aconitine in methanol. […] The third step consisted of centrifuging, and 5 μL of the supernatant liquid was injected into the UPLC/MS.

P-glycoprotein [7] = conditions: deduced from verapamil effect in rat gut sacs
Procedure: as §1

everted rat gut sacs [8] = assay: Viability of the everted rat gut sacs (serosal/mucosal glucose ratio); conditions: incubation up to 120 min; Fig 5
Procedure: To verify the integrity and viability of the gut sacs, glucose was collected from both the serosal side and the mucosal side of the rat gut sacs at a fixed time, and glucose was detected using a Waters UPLC/MS (Waters Co., USA), which is more accurate and sensitive than a UV-Vis detector. Separation was performed on a Hypersil NH column (4.6*150 mm, 25 μm, Elite Co., China). Although only glucose was available for detection in this part, the column separation was essential because large amounts of inorganic salts were present in the K-R nutrient solution. A mobile phase composed of 80% acetonitrile (A) and 20% distilled water (B) was used for isocratic elution. The retention time for glucose was 7.37 min. The peak area ratio of glucose in the serosal side to that in the mucosal side was used to validate the viability of the everted rat gut sacs.

[9] = Middle concentration QC samples

## CCCCC[C@H](O)CC(=O)CCc1ccc(O)c(OC)c1 [6-gingerol]
Everted rat gut sacs [1]; added to high aconitine concentration, all four gut sacs
  Effect on the level (Papp) of aconitine in the rat gut sacs: P2 value is smaller than the P0 value in each gut sac
P-glycoprotein [2]; co-incubated with digoxin, every gut sac, Fig 7, Fig 9
  Effect on digoxin content in gut sacs: decreased
P-glycoprotein [2]; deduced from decreased digoxin level in rat gut sacs
  Effect on P-glycoprotein (inducer / revulsant): potential revulsant of P-gp

## CCN1C[C@]2(COC)[C@H](O)C[C@H](OC)[C@@]34[C@@H]5C[C@@]6(O)[C@H](OC(=O)c7ccccc7)[C@@H]5[C@@](OC(C)=O)([C@@H]([C@H](OC)[C@H]23)[C@@H]14)[C@@H](O)[C@@H]6OC [aconitine]
Everted rat gut sacs [3]; colon, aconitine 75 ng/mL
  Fitting equation (zero-level; slope = absorption rate constant ka): Q = 0.01937t
Everted rat gut sacs [3]; colon, aconitine 750 ng/mL
  Fitting equation (zero-level; slope = absorption rate constant ka): Q = 0.1302t
Everted rat gut sacs [3]; colon, aconitine 7500 ng/mL
  Fitting equation (zero-level; slope = absorption rate constant ka): Q = 2.000t
Everted rat gut sacs [3]; duodenum, aconitine 75 ng/mL
  Fitting equation (zero-level; slope = absorption rate constant ka): Q = 0.02546t
Everted rat gut sacs [3]; duodenum, aconitine 750 ng/mL
  Fitting equation (zero-level; slope = absorption rate constant ka): Q = 0.05406t
Everted rat gut sacs [3]; duodenum, aconitine 7500 ng/mL
  Fitting equation (zero-level; slope = absorption rate constant ka): Q = 3.528t
Everted rat gut sacs [3]; ileum, aconitine 75 ng/mL
  Fitting equation (zero-level; slope = absorption rate constant ka): Q = 0.01294t
Everted rat gut sacs [3]; ileum, aconitine 750 ng/mL
  Fitting equation (zero-level; slope = absorption rate constant ka): Q = 0.2906t
Everted rat gut sacs [3]; ileum, aconitine 7500 ng/mL
  Fitting equation (zero-level; slope = absorption rate constant ka): Q = 2.529t
Everted rat gut sacs [3]; jejunum, aconitine 75 ng/mL
  Fitting equation (zero-level; slope = absorption rate constant ka): Q = 0.02977t
Everted rat gut sacs [3]; jejunum, aconitine 750 ng/mL
  Fitting equation (zero-level; slope = absorption rate constant ka): Q = 0.2028t
Everted rat gut sacs [3]; jejunum, aconitine 7500 ng/mL
  Fitting equation (zero-level; slope = absorption rate constant ka): Q = 3.2531t
[4]; High concentration QC samples
  Stability RSD%: 10.04%
[4]; Low concentration QC samples
  Stability RSD%: 2.448%
[4]; [9]
  Stability RSD%: 11.72%
[4]
  Stability of QC samples: stable for 48 h
Everted rat gut sacs [1]; colon
  ER(P2/P0): 0.4363
  ER(P1/P0): 0.6695
Everted rat gut sacs [1]; duodenum
  ER(P2/P0): 0.3602
  ER(P1/P0): 0.2703
Everted rat gut sacs [1]; ileum
  ER(P2/P0): 0.3464
  ER(P1/P0): 0.3615
Everted rat gut sacs [1]; jejunum
  ER(P2/P0): 0.3979
  ER(P1/P0): 0.3942
P-glycoprotein [5]
  P-glycoprotein substrate / inhibitor status: both a substrate and an inhibitor of P-glycoprotein
[6]
  Solubility in solvents: able to be dissolved in methanol
P-glycoprotein [7]
  P-glycoprotein substrate status: potential substrate of P-glycoprotein
Everted rat gut sacs [8]
  Toxicity to gut sac tissue (glucose serosal/mucosal ratio): did not induce toxicity in the gut sac tissue

## C[C@H]1O[C@@H](O[C@H]2[C@@H](O)C[C@H](O[C@H]3[C@@H](O)C[C@H](O[C@H]4CC[C@@]5(C)[C@H](CC[C@@H]6[C@@H]5C[C@@H](O)[C@]5(C)[C@@H](C7=CC(=O)OC7)CC[C@]65O)C4)O[C@@H]3C)O[C@@H]2C)C[C@H](O)[C@@H]1O [digoxin, reference compound]
[4]; High concentration QC samples
  Stability RSD%: 1.336%
[4]; Low concentration QC samples
  Stability RSD%: 2.036%
[4]; [9]
  Stability RSD%: 4.913%
[4]
  Stability of QC samples: stable for 48 h
[6]
  Solubility in solvents: only could be dissolved in dimethyl sulfoxide (DMSO) among the tested solvents
